Measured values: ChEMBL document CHEMBL4819078, “Bioactive Dimeric Tetrahydroxanthones with 2,2'- and 4,4'-Axial Linkages from the Entomopathogenic Fungus Aschersonia confluens” (J Nat Prod, 2021)
Values after ≈ are worked out from the molar mass of the structure shown. Active and inactive are the calls of the source. No cut-off for these calls is given here.

Tests used:
[1] = test system: Acinetobacter baumannii; assay: Antibacterial activity against Acinetobacter baumannii ATCC 19606 by CLSI based microplate assay; assay type: functional; settings: ATCC 19606 = CIP 70.34 = JCM 6841
[2] = test system: Klebsiella pneumoniae; assay: Antibacterial activity against Klebsiella pneumoniae ATCC 700603 by CLSI based microplate assay; assay type: functional
[3] = test system: Escherichia coli; assay: Antibacterial activity against Escherichia coli ATCC 25922 by CLSI based microplate assay; assay type: functional
[4] = test system: Enterococcus faecium; assay: Antibacterial activity against Enterococcus faecium ATCC 51559 by CLSI based microplate assay; assay type: functional
[5] = test system: Mycobacterium tuberculosis; assay: Antitubercular activity against Mycobacterium tuberculosis H37Ra ATCC 25177 assessed as reduction in bacterial growth after 6 to 8 days by green fluorescent protein microplate assay; assay type: functional; settings: time 6-8 day
[6] = test system: Bacillus cereus; assay: Antibacterial activity against Bacillus cereus ATCC 11778 by resazurin microplate assay; assay type: functional
[7] = test system: Pseudomonas aeruginosa; assay: Antibacterial activity against Pseudomonas aeruginosa ATCC 15692 by CLSI based microplate assay; assay type: functional
[8] = test system: Vero; assay: Cytotoxicity against African green monkey Vero cells by green fluorescent protein microplate assay; assay type: cell-based; settings: Chlorocebus sabaeus
[9] = test system: Candida albicans; assay: Antifungal activity against Candida albicans ATCC 90028 by resazurin microplate assay; assay type: functional
[10] = test system: KB; assay: cells; settings: Homo sapiens
Description: Cytotoxicity against human KB cells assessed as reduction in cell viability by resazurin based fluorescence assay

[11] = test system: NCI-H187; assay: cells; settings: Homo sapiens
Description: Cytotoxicity against human NCI-H187 cells assessed as reduction in cell viability by resazurin based fluorescence assay

[12] = test system: MCF7; assay: cells; settings: Homo sapiens
Description: Cytotoxicity against human MCF7 cells assessed as reduction in cell viability by resazurin based fluorescence assay

[13] = test system: Plasmodium falciparum; assay: Antimalarial activity against multi drug-resistant Plasmodium falciparum K1 infected in human erythrocytes assessed as inhibition of [G-3H]hypoxanthine uptake preincubated for 24 hrs followed by [G-3H]hypoxanthine addition and measured after 18 hrs by scintillation counting method; assay type: functional, organism-based

CO[C@H]1/C=C/O[C@@]2(C)Oc3c(C)c(O)c4c(O)c(c(/C=N/N5CCN(C)CC5)c(O)c4c3C2=O)NC(=O)/C(C)=C\C=C\[C@H](C)[C@H](O)[C@@H](C)[C@@H](O)[C@@H](C)[C@H](OC(C)=O)[C@@H]1C [RIFAMPIN]
MIC [1]: 3.1 mg/L (≈ 3.77 µM)
MIC [2]: 25 mg/L (≈ 30.4 µM)
MIC [3]: 6.3 mg/L (≈ 7.66 µM)
MIC [4]: 3.1 mg/L (≈ 3.77 µM)

CO[C@H]1CC=C2C(=O)c3c(cc(C)c(-c4c(C)cc5c(c4O)C(=O)C4=CC[C@H](OC)[C@H](O)[C@]4(C)O5)c3O)O[C@@]2(C)[C@@H]1O
MIC [5]: 25 mg/L (≈ 43.2 µM)
Activity [6]: inactive
Activity [7]: inactive
IC50 [8]: 2.4 µM
Activity [1]: inactive
Activity [9]: inactive
IC50 [10]: 3.4 µM
IC50 [11]: 1.2 µM
Activity [2]: inactive
Activity [3]: inactive
IC50 [12]: > 86.4 µM
MIC [4]: 12.5 mg/L (≈ 21.6 µM)
IC50 [13]: 1 µM

O[C@@H](c1cc(C(F)(F)F)nc2c(C(F)(F)F)cccc12)[C@H]1CCCCN1 [(S,R)-MEFLOQUINE]
IC50 [13]: 0.07 µM

NNC(=O)c1ccncc1 [ISONIAZID]
MIC [5]: 0.1 mg/L (≈ 0.729 µM)

CO[C@H]1CC=C2C(=O)c3c(cc(C)c(-c4c(C)cc5c(c4O)C(=O)C4=CC[C@H](OC)[C@@H](O)[C@]4(C)O5)c3O)O[C@@]2(C)[C@@H]1O [ASCHERXANTHONE A]
MIC [5]: 6.3 mg/L (≈ 10.9 µM)
Activity [6]: inactive
Activity [7]: inactive
IC50 [8]: 0.9 µM
Activity [1]: inactive
Activity [9]: inactive
IC50 [10]: 3.2 µM
IC50 [11]: 0.5 µM
Activity [2]: inactive
Activity [3]: inactive
IC50 [12]: 16.8 µM
MIC [4]: > 50 mg/L
IC50 [13]: 1 µM

CN[C@H](CC(C)C)C(=O)N[C@H]1C(=O)N[C@@H](CC(N)=O)C(=O)N[C@H]2C(=O)N[C@H]3C(=O)N[C@H](C(=O)N[C@H](C(=O)O)c4cc(O)cc(O)c4-c4cc3ccc4O)[C@H](O)c3ccc(c(Cl)c3)Oc3cc2cc(c3O[C@@H]2O[C@H](CO)[C@@H](O)[C@H](O)[C@H]2O[C@H]2C[C@](C)(N)[C@H](O)[C@H](C)O2)Oc2ccc(cc2Cl)[C@H]1O [VANCOMYCIN]
MIC [6]: 2 mg/L (≈ 1.38 µM)

CO[C@H]1CC=C2C(=O)c3c(O)cc(C)c(-c4c(C)cc(O)c5c4O[C@]4(C)C(=CC[C@H](OC)[C@@H]4O)C5=O)c3O[C@@]2(C)[C@@H]1O
MIC [5]: 6.3 mg/L (≈ 10.9 µM)
Activity [6]: inactive
Activity [7]: inactive
IC50 [8]: 4.2 µM
Activity [1]: inactive
Activity [9]: inactive
IC50 [10]: 4.7 µM
IC50 [11]: 2.8 µM
Activity [2]: inactive
Activity [3]: inactive
IC50 [12]: 27.9 µM
MIC [4]: > 50 mg/L
IC50 [13]: 2.6 µM

CN[C@@H]1[C@H](O[C@H]2[C@H](O[C@H]3[C@H](O)[C@@H](O)[C@H](N=C(N)N)[C@@H](O)[C@@H]3N=C(N)N)O[C@@H](C)[C@]2(O)C=O)O[C@@H](CO)[C@H](O)[C@H]1O [STREPTOMYCIN]
MIC [5]: 0.3 mg/L (≈ 0.516 µM)

CO[C@H]1[C@H](O)C=C2C(=O)c3c(cc(C)c(-c4c(C)cc5c(c4O)C(=O)C4=CC[C@H](OC)[C@@H](O)[C@]4(C)O5)c3O)O[C@@]2(C)[C@@H]1O
MIC [5]: 6.3 mg/L (≈ 10.6 µM)
Activity [6]: inactive
Activity [7]: inactive
IC50 [8]: 1.2 µM
Activity [1]: inactive
Activity [9]: inactive
IC50 [10]: 1.3 µM
IC50 [11]: 1 µM
Activity [2]: inactive
Activity [3]: inactive
IC50 [12]: 12.8 µM
MIC [4]: > 50 mg/L
IC50 [13]: 0.6 µM

O=C(N[C@H](CO)[C@H](O)c1ccc([N+](=O)[O-])cc1)C(Cl)Cl [CHLORAMPHENICOL]
MIC [7]: 8 mg/L (≈ 24.8 µM)

Cc1c2ccncc2c(C)c2c1[nH]c1ccccc12 [ELLIPTECINE]
IC50 [8]: 7.9 µM
IC50 [10]: 6.1 µM
IC50 [11]: 9.1 µM

CO[C@H]1CC=C2C(=O)c3c(O)cc(C)c(-c4c(C)cc(O)c5c4O[C@]4(C)C(=CC(=O)[C@H](OC)[C@H]4O)C5=O)c3O[C@@]2(C)[C@@H]1O
MIC [5]: 12.5 mg/L (≈ 21.1 µM)
Activity [6]: inactive
Activity [7]: inactive
IC50 [8]: 4.2 µM
Activity [1]: inactive
Activity [9]: inactive
IC50 [10]: 4.9 µM
IC50 [11]: 1.7 µM
Activity [2]: inactive
Activity [3]: inactive
IC50 [12]: 25.5 µM
MIC [4]: > 50 mg/L
IC50 [13]: 6.1 µM

CC[C@@H](CO)NCCN[C@@H](CC)CO [ETHAMBUTOL]
MIC [5]: 0.9 mg/L (≈ 4.4 µM)

C[C@@H]1[C@H](O)[C@@H](C)/C=C/C=C/C=C/C=C/C=C/C=C/C=C/[C@H](O[C@@H]2O[C@H](C)[C@@H](O)[C@H](N)[C@@H]2O)C[C@@H]2O[C@](O)(C[C@@H](O)C[C@@H](O)[C@H](O)CC[C@@H](O)C[C@@H](O)CC(=O)O[C@H]1C)C[C@H](O)[C@H]2C(=O)O [AMPHOTERICIN B]
MIC [9]: 0.1 mg/L (≈ 0.108 µM)

CC1COc2c(N3CCN(C)CC3)c(F)cc3c(=O)c(C(=O)O)cn1c23 (configuration not stated) [OFLOXACIN]
MIC [5]: 0.4 mg/L (≈ 1.11 µM)

CC/C(=C(\c1ccccc1)c1ccc(OCCN(C)C)cc1)c1ccccc1 [TAMOXIFEN]
IC50 [12]: 19.2 µM

COC1=C[C@]2(C)Oc3c(c(O)cc(C)c3-c3c(C)cc(O)c4c3O[C@]3(C)C(=CC[C@H](OC)[C@H]3O)C4=O)C(=O)[C@@H]2CC1=O
MIC [5]: 12.5 mg/L (≈ 21.7 µM)
Activity [6]: inactive
Activity [7]: inactive
IC50 [8]: 6.1 µM
Activity [1]: inactive
Activity [9]: inactive
IC50 [10]: 9.7 µM
IC50 [11]: 3.5 µM
Activity [2]: inactive
Activity [3]: inactive
IC50 [12]: 17.6 µM
MIC [4]: > 50 mg/L
IC50 [13]: 4.8 µM

CO[C@H]1CC=C2C(=O)c3c(O)cc(C)c(-c4c(C)cc(O)c5c4O[C@]4(C)C(=CC[C@H](OC)[C@H]4O)C5=O)c3O[C@@]2(C)[C@@H]1O
MIC [5]: 6.3 mg/L (≈ 10.9 µM)
Activity [6]: inactive
Activity [7]: inactive
IC50 [8]: 1.1 µM
Activity [1]: inactive
Activity [9]: inactive
IC50 [10]: 1.5 µM
IC50 [11]: 0.8 µM
Activity [2]: inactive
Activity [3]: inactive
IC50 [12]: 7.5 µM
MIC [4]: > 50 mg/L
IC50 [13]: 0.9 µM

CO[C@H]1CC=C2C(=O)c3c(cc(C)c(-c4c(C)cc5c(c4O)C(=O)C4=CC[C@H](OC)[C@H](OC(C)=O)[C@]4(C)O5)c3O)O[C@@]2(C)[C@@H]1O
MIC [5]: 6.3 mg/L (≈ 10.2 µM)
Activity [6]: inactive
Activity [7]: inactive
IC50 [8]: 0.9 µM
Activity [1]: inactive
Activity [9]: inactive
IC50 [10]: 1.5 µM
IC50 [11]: 1 µM
Activity [2]: inactive
Activity [3]: inactive
IC50 [12]: 7.2 µM
MIC [4]: 12.5 mg/L (≈ 20.1 µM)
IC50 [13]: 1.4 µM

CC[C@H]1OC(=O)[C@H](C)[C@@H](O[C@H]2C[C@@](C)(OC)[C@@H](O)[C@H](C)O2)[C@H](C)[C@@H](O[C@@H]2O[C@H](C)C[C@H](N(C)C)[C@H]2O)[C@](C)(O)C[C@@H](C)C(=O)[C@H](C)[C@@H](O)[C@]1(C)O [ERYTHROMYCIN]
MIC [7]: 32 mg/L (≈ 43.6 µM)
MIC [1]: 12.5 mg/L (≈ 17 µM)
MIC [2]: 200 mg/L (≈ 273 µM)
MIC [3]: 25 mg/L (≈ 34.1 µM)

CO[C@H]1[C@H](O)C=C2C(=O)c3c(O)cc(C)c(-c4c(C)cc(O)c5c4O[C@]4(C)C(=CC[C@H](OC)[C@H]4O)C5=O)c3O[C@@]2(C)[C@@H]1O
MIC [5]: 25 mg/L (≈ 42 µM)
Activity [6]: inactive
Activity [7]: inactive
IC50 [8]: 2.2 µM
Activity [1]: inactive
Activity [9]: inactive
IC50 [10]: 63.5 µM
IC50 [11]: 1 µM
Activity [2]: inactive
Activity [3]: inactive
IC50 [12]: 63.2 µM
MIC [4]: > 50 mg/L
IC50 [13]: 1.7 µM
